According to patent US11524968B2, “Heterocyclic compound as a protein kinase inhibitor” (HK inno.N Corporation, priority 2017, dated 2022):

Target: JAK1 (Homo sapiens (Human), UniProt P23458)
Assay: Analysis of JAK1 activity inhibition ability (ADP-Glo Kinase Assay)
Format: biochemical
Conditions: JAK1 enzyme, ADP-Glo luminescence, ATP 250 uM, IRS-itide substrate, 30° C. 40 minutes; read-out: IC50
Procedure, shortened: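 JAK1 enzyme, IRS-itide substrate (40 ng/mL) and 250 uM ATP, both as prepared in kinase buffer (Tris-HCl pH 7.5, MgCl2, BSA, DTT), reacted with compound 40 min at 30 °C. ADP formed was detected by ADP-Glo luminescence; IC50 is the concentration giving 50% inhibition versus control.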

Sequence of JAK1 (P23458 whole entry): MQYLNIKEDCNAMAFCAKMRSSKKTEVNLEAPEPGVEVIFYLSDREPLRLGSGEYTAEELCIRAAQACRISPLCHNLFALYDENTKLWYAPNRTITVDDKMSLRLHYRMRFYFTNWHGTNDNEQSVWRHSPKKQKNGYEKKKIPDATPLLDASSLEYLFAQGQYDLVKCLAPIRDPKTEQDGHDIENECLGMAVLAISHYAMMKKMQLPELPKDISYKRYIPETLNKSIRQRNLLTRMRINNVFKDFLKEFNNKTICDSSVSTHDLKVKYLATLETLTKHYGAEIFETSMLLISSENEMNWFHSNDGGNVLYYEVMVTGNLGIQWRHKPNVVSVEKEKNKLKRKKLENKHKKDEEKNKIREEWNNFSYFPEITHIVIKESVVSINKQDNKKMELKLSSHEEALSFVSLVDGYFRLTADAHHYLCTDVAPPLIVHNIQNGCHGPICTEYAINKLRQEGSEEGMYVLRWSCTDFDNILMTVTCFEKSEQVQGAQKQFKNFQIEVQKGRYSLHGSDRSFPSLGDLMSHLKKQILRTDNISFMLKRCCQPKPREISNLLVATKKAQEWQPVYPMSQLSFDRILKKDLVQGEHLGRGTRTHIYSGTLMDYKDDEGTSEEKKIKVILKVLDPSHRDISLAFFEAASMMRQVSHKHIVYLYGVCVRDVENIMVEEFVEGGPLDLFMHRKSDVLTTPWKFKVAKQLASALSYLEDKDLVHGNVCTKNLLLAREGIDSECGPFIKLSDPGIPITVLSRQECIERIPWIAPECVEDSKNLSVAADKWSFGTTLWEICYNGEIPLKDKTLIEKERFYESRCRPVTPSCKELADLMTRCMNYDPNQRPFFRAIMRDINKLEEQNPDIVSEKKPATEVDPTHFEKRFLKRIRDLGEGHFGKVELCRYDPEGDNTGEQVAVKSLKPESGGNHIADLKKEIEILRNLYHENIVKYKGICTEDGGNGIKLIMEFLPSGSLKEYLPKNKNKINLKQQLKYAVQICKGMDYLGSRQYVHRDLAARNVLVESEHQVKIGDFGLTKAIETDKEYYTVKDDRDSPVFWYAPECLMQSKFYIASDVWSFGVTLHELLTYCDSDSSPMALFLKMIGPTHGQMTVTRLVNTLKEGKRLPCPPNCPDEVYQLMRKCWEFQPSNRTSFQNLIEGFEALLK

Compound	IC50 [nM]
N#CCCNC(=O)Cc1ccc(-c2cc(NC(=O)C3CC3)nc3[nH]ccc23)cc1 [Example 553, N-(4-(4-(2-((2-cyanoethyl)amino)-2-oxoethyl)phenyl)-1H-pyrrolo[2,3-b]pyridin-6-yl)cyclopropanecarboxamide]	20 to 200
COc1ccc(C(=O)N2CC=C(c3cc(NC(=O)C4CC4)nc4[nH]ccc34)C(C)C2)cc1F (stereo not shown) [Example 312, N-(4-(1-(3-fluoro-4-methoxybenzoyl)-3-methyl-1,2,3,6-tetrahydropyridin-4-yl)-1H-pyrrolo[2,3-b]pyridin-6-yl)cyclopropanecarboxamide]	20 to 200
O=C(Nc1cc(-c2cnn(C3CN(S(=O)(=O)c4ccccc4)C3)c2)c2cc[nH]c2n1)C1CC1 [Example 604, N-(4-(1-(1-(phenylsulfonyl)azetidin-3-yl)-1H-pyrazol-4-yl)-1H-pyrrolo[2,3-b]pyridin-6-yl)cyclopropanecarboxamide]	20 to 200
O=C(Nc1nc(N2CC3CCC(C2)N3CC(=O)N2CCS(=O)(=O)CC2)c2cc[nH]c2n1)C1CC1 [Example 704, N-(4-(8-(2-(1,1-dioxidothiomorpholino)-2-oxoethyl)-3,8-diazabicyclo[3.2.1]octan-3-yl)-7H-pyrrolo[2,3-d]pyrimidin-2-yl)cyclopropanecarboxamide]	> 200
CCC(C#N)C(=O)N1CC=C(c2cc(NC(=O)C3CC3)nc3[nH]ccc23)CC1 (stereo not shown) [Example 271, N-(4-(1-(2-cyanobutanoyl)-1,2,3,6-tetrahydropyridin-4-yl)-1H-pyrrolo[2,3-b]pyridin-6-yl)cyclopropanecarboxamide]	20 to 200
O=C(Nc1cc(-c2ccc(NS(=O)(=O)c3ccc(Cl)cc3)cc2)c2cc[nH]c2n1)C1CC1 [Example 14, N-(4-(4-((4-chlorophenyl)sulfonamido)phenyl)-1H-pyrrolo[2,3-b]pyridin-6-yl)cyclopropanecarboxamide]	< 20
CC1CN(C(=O)C(C#N)Cc2ccccc2)CC=C1c1cc(NC(=O)C2CC2)nc2[nH]ccc12 (stereo not shown) [Example 360, N-(4-(1-(2-cyano-3-phenylpropanoyl)-3-methyl-1,2,3,6-tetrahydropyridin-4-yl)-1H-pyrrolo[2,3-b]pyridin-6-yl)cyclopropanecarboxamide]	20 to 200
CC(C)(C)CS(=O)(=O)Nc1ccc(-c2cc(NC(=O)C3CC3)nc3[nH]ccc23)cc1 [Example 44, N-(4-(4-((2,2-dimethylpropyl)sulfonamido)phenyl)-1H-pyrrolo[2,3-b]pyridin-6-yl)cyclopropanecarboxamide]	< 20
O=C(Nc1cc(-c2ccc(NS(=O)(=O)CC(F)F)cc2)c2cc[nH]c2n1)C1CC1 [Example 51, N-(4-(4-((2,2-difluoroethyl)sulfonamido)phenyl)-1H-pyrrolo[2,3-b]pyridin-6-yl)cyclopropanecarboxamide]	20 to 200
O=C(Nc1nc(-c2ccc(NS(=O)(=O)C3CCS(=O)(=O)CC3)cc2)c2cc[nH]c2n1)C1CC1 [Example 195, N-(4-(4-((1,1-dioxidotetrahydro-2H-thiopyran)-4-sulfonamido)phenyl)-7H-pyrrolo[2,3-d]pyrimidin-2-yl)cyclopropanecarboxamide]	20 to 200
CCCCNC(=S)Nc1ccc(-c2nc(NC(=O)C3CC3)nc3[nH]ccc23)cc1 [Example 465, N-(4-(4-(3-butylthioureido)phenyl)-7H-pyrrolo[2,3-d]pyrimidin-2-yl)cyclopropanecarboxamide]	20 to 200
CC1CN(C2(CC#N)COC2)CC=C1c1cc(NC(=O)C2CC2)nc2[nH]ccc12 (stereo not shown) [Example 613, N-(4-(1-(3-(cyanomethyl)oxetan-3-yl)-3-methyl-1,2,3,6-tetrahydropyridin-4-yl)-1H-pyrrolo[2,3-b]pyridin-6-yl)cyclopropanecarboxamide]	20 to 200
Cn1ccc(NC(=O)Cc2ccc(-c3cc(NC(=O)C4CC4)nc4[nH]ccc34)cc2)n1 [Example 556, N-(4-(4-(2-((1-methyl-1H-pyrazol-3-yl)amino)-2-oxoethyl)phenyl)-1H-pyrrolo[2,3-b]pyridin-6-yl)cyclopropanecarboxamide]	20 to 200
